From US20250171438A1 (Agios Pharmaceuticals, Inc., priority 2022, published 2025)

Biological target: T1, human PAH with the R408W mutation (Homo sapiens, UniProt P00439, R408W)
T1 construct: expressed in transfected cells
T1 sequence (P00439 1-452 R408W): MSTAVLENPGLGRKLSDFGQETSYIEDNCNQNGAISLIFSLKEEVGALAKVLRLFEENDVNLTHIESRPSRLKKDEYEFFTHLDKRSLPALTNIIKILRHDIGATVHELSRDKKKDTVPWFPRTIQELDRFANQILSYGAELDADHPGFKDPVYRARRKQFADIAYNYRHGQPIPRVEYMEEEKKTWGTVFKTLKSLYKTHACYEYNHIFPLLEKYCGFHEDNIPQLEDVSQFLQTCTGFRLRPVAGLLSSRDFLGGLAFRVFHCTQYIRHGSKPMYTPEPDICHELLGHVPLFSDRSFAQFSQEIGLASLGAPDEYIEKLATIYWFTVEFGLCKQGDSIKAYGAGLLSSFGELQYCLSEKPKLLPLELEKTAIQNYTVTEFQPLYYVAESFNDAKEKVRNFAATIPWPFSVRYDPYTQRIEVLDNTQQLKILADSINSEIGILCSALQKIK
Assay: Cell Based Phenylalanine Flux Assay
Conditions: A375 cells expressing human R408W PAH; 24 hrs compound incubation; 13C-Tyrosine by LC-MS; average where tested multiple times; read-out: AC50

SMILES | AC50 [µM]
N#Cc1nc(NC2CC2)oc1C(=O)N1CCc2[nH]cnc2[C@H]1c1nc2ccccc2s1 [Example 1699, (S)-5-(4-(benzo[d]thiazol-2-yl)-4,5,6,7-tetrahydro-1H-imidazo[4,5-c]pyridine-5-carbonyl)-2-(cyclopropylamino)oxazole-4-carbonitrile] | 1 to 5
Cc1nc(CCCN2CCOCC2)oc1C(=O)N1CCc2[nH]cnc2[C@H]1c1nc2ccccc2s1 [Example 1701] | < 0.5
COCc1ncc(C(=O)N2CCc3[nH]cnc3[C@H]2c2nc3c(F)cccc3s2)s1 [Example 1703, (S)-(4-(4-fluorobenzo[d]thiazol-2-yl)-6,7-dihydro-1H-imidazo[4,5-c]pyridin-5(4H)-yl)(2-(methoxymethyl)thiazol-5-yl)methanone] | 0.5 to 1
COCc1ncc(C(=O)N2CCc3[nH]cnc3[C@@H]2c2nc3c(F)cccc3s2)s1 [Example 1704, (R)-(4-(4-fluorobenzo[d]thiazol-2-yl)-6,7-dihydro-1H-imidazo[4,5-c]pyridin-5(4H)-yl)(2-(methoxymethyl)thiazol-5-yl)methanone] | 1 to 5
N#Cc1nc(N2CCOCC2)oc1C(=O)N1CCc2[nH]cnc2[C@@H]1c1nc2ccccc2s1 [Example 1706, (R)-5-(4-(benzo[d]thiazol-2-yl)-4,5,6,7-tetrahydro-1H-imidazo[4,5-c]pyridine-5-carbonyl)-2-morpholinooxazole-4-carbonitrile] | > 5
O=C(c1oc(N2CCC(F)CC2)nc1C(F)F)N1CCc2[nH]cnc2[C@@H]1c1nc2ccccc2s1 [Example 1708, (R)-(4-(benzo[d]thiazol-2-yl)-6,7-dihydro-1H-imidazo[4,5-c]pyridin-5(4H)-yl)(4-(difluoromethyl)-2-(4-fluoropiperidin-1-yl)oxazol-5-yl)methanone] | < 0.5
O=C(c1nnc(-c2ccc(F)cn2)o1)N1CCc2[nH]cnc2[C@H]1c1nc2c(F)cccc2s1 [Example 1711, (S)-(4-(4-fluorobenzo[d]thiazol-2-yl)-6,7-dihydro-1H-imidazo[4,5-c]pyridin-5(4H)-yl)(5-(5-fluoropyridin-2-yl)-1,3,4-oxadiazol-2-yl)methanone] | 1 to 5
O=C(c1oc(NC2CC2)nc1C(F)F)N1CCc2[nH]cnc2[C@H]1c1nc2ccccc2s1 [Example 1715] | < 0.5
O=C(c1oc(NC2CC2)nc1C(F)F)N1CCc2[nH]cnc2[C@@H]1c1nc2ccccc2s1 [Example 1716, (R)-(4-(benzo[d]thiazol-2-yl)-6,7-dihydro-1H-imidazo[4,5-c]pyridin-5(4H)-yl)(2-(cyclopropylamino)-4-(difluoromethyl)oxazol-5-yl)methanone] | 1 to 5
O=C(c1nnc(-c2ccccn2)o1)N1CCc2[nH]cnc2[C@@H]1c1nc2cccc(F)c2s1 [Example 1717, (R)-(4-(7-fluorobenzo[d]thiazol-2-yl)-6,7-dihydro-1H-imidazo[4,5-c]pyridin-5(4H)-yl)(5-(pyridin-2-yl)-1,3,4-oxadiazol-2-yl)methanone] | 0.5 to 1
O=C(c1nnc(-c2ccccn2)o1)N1CCc2[nH]cnc2[C@H]1c1nc2cccc(F)c2s1 [Example 1718, (S)-(4-(7-fluorobenzo[d]thiazol-2-yl)-6,7-dihydro-1H-imidazo[4,5-c]pyridin-5(4H)-yl)(5-(pyridin-2-yl)-1,3,4-oxadiazol-2-yl)methanone] | < 0.5
COCCn1nccc1C(=O)N1CCc2[nH]cnc2[C@@H]1c1nc2c(F)cccc2s1 [Example 1724, (R)-(4-(4-fluorobenzo[d]thiazol-2-yl)-6,7-dihydro-1H-imidazo[4,5-c]pyridin-5(4H)-yl)(1-(2-methoxyethyl)-1H-pyrazol-5-yl)methanone] | < 0.5
Cn1cc(-c2nnc(C(=O)N3CCc4[nH]cnc4[C@H]3c3nc4c(F)cccc4s3)o2)cn1 [Example 1728, (S)-(4-(4-fluorobenzo[d]thiazol-2-yl)-6,7-dihydro-1H-imidazo[4,5-c]pyridin-5(4H)-yl)(5-(1-methyl-1H-pyrazol-4-yl)-1,3,4-oxadiazol-2-yl)methanone] | < 0.5

Continued, values first:

AC50 [µM] | SMILES
> 5 | CC(C)(O)c1nc(C#N)c(C(=O)N2CCc3[nH]cnc3[C@@H]2c2nc3ccccc3s2)o1 [Example 1698, (R)-5-(4-(benzo[d]thiazol-2-yl)-4,5,6,7-tetrahydro-1H-imidazo[4,5-c]pyridine-5-carbonyl)-2-(2-hydroxypropan-2-yl)oxazole-4-carbonitrile]
> 5 | Cc1nc(CCCN2CCOCC2)oc1C(=O)N1CCc2[nH]cnc2[C@@H]1c1nc2ccccc2s1 [Example 1702, (R)-(4-(benzo[d]thiazol-2-yl)-6,7-dihydro-1H-imidazo[4,5-c]pyridin-5(4H)-yl)(4-methyl-2-(3-morpholinopropyl)oxazol-5-yl)methanone]
0.5 to 1 | N#Cc1nc(N2CCOCC2)oc1C(=O)N1CCc2[nH]cnc2[C@H]1c1nc2ccccc2s1 [Example 1705, (S)-5-(4-(benzo[d]thiazol-2-yl)-4,5,6,7-tetrahydro-1H-imidazo[4,5-c]pyridine-5-carbonyl)-2-morpholinooxazole-4-carbonitrile]
< 0.5 | O=C(c1oc(N2CCC(F)CC2)nc1C(F)F)N1CCc2[nH]cnc2[C@H]1c1nc2ccccc2s1 [Example 1707]
< 0.5 | O=C(c1nnc(-c2ncccc2F)o1)N1CCc2[nH]cnc2[C@@H]1c1nc2ccccc2s1 [Example 1709, (R)-(4-(benzo[d]thiazol-2-yl)-6,7-dihydro-1H-imidazo[4,5-c]pyridin-5(4H)-yl)(5-(3-fluoropyridin-2-yl)-1,3,4-oxadiazol-2-yl)methanone]
1 to 5 | O=C(c1nnc(-c2ncccc2F)o1)N1CCc2[nH]cnc2[C@H]1c1nc2ccccc2s1 [Example 1710]
< 0.5 | O=C(c1nnc(-c2ccc(F)cn2)o1)N1CCc2[nH]cnc2[C@@H]1c1nc2c(F)cccc2s1 [Example 1712, (R)-(4-(4-fluorobenzo[d]thiazol-2-yl)-6,7-dihydro-1H-imidazo[4,5-c]pyridin-5(4H)-yl)(5-(5-fluoropyridin-2-yl)-1,3,4-oxadiazol-2-yl)methanone]
> 5 | N#Cc1nc(-c2ccccn2)oc1C(=O)N1CCc2[nH]cnc2[C@@H]1c1nc2ccccc2s1 [Example 1713, (R)-5-(4-(benzo[d]thiazol-2-yl)-4,5,6,7-tetrahydro-1H-imidazo[4,5-c]pyridine-5-carbonyl)-2-(pyridin-2-yl)oxazole-4-carbonitrile]
< 0.5 | N#Cc1nc(-c2ccccn2)oc1C(=O)N1CCc2[nH]cnc2[C@H]1c1nc2ccccc2s1 [Example 1714, (S)-5-(4-(benzo[d]thiazol-2-yl)-4,5,6,7-tetrahydro-1H-imidazo[4,5-c]pyridine-5-carbonyl)-2-(pyridin-2-yl)oxazole-4-carbonitrile]
1 to 5 | O=C(c1nnc(-c2ccccn2)o1)N1CCc2[nH]cnc2[C@@H]1c1nc2ccc(F)cc2s1 [Example 1719, (R)-(4-(6-fluorobenzo[d]thiazol-2-yl)-6,7-dihydro-1H-imidazo[4,5-c]pyridin-5(4H)-yl)(5-(pyridin-2-yl)-1,3,4-oxadiazol-2-yl)methanone]
< 0.5 | O=C(c1nnc(-c2ccccn2)o1)N1CCc2[nH]cnc2[C@H]1c1nc2ccc(F)cc2s1 [Example 1720, (S)-(4-(6-fluorobenzo[d]thiazol-2-yl)-6,7-dihydro-1H-imidazo[4,5-c]pyridin-5(4H)-yl)(5-(pyridin-2-yl)-1,3,4-oxadiazol-2-yl)methanone]
< 0.5 | Cn1nc(Cl)cc1C(=O)N1CCc2[nH]cnc2[C@H]1c1nc2c(F)cccc2s1 [Example 1721]
1 to 5 | Cn1nc(Cl)cc1C(=O)N1CCc2[nH]cnc2[C@@H]1c1nc2c(F)cccc2s1 [Example 1722, (R)-(3-chloro-1-methyl-1H-pyrazol-5-yl)(4-(4-fluorobenzo[d]thiazol-2-yl)-6,7-dihydro-1H-imidazo[4,5-c]pyridin-5(4H)-yl)methanone]
< 0.5 | COCCn1nccc1C(=O)N1CCc2[nH]cnc2[C@H]1c1nc2c(F)cccc2s1 [Example 1723, (S)-(4-(4-fluorobenzo[d]thiazol-2-yl)-6,7-dihydro-1H-imidazo[4,5-c]pyridin-5(4H)-yl)(1-(2-methoxyethyl)-1H-pyrazol-5-yl)methanone]
0.5 to 1 | Cn1nncc1C(=O)N1CCc2[nH]cnc2[C@H]1c1nc2c(F)cccc2s1 [Example 1725]
1 to 5 | Cn1nncc1C(=O)N1CCc2[nH]cnc2[C@@H]1c1nc2c(F)cccc2s1 [Example 1726, (R)-(4-(4-fluorobenzo[d]thiazol-2-yl)-6,7-dihydro-1H-imidazo[4,5-c]pyridin-5(4H)-yl)(1-methyl-1H-1,2,3-triazol-5-yl)methanone]
1 to 5 | Cn1cc(-c2nnc(C(=O)N3CCc4[nH]cnc4[C@@H]3c3nc4c(F)cccc4s3)o2)cn1 [Example 1727, (R)-(4-(4-fluorobenzo[d]thiazol-2-yl)-6,7-dihydro-1H-imidazo[4,5-c]pyridin-5(4H)-yl)(5-(1-methyl-1H-pyrazol-4-yl)-1,3,4-oxadiazol-2-yl)methanone]
0.5 to 1 | COCCc1nc(C)c(C(=O)N2CCc3[nH]cnc3[C@H]2c2nc3ccccc3s2)o1 [Example 1729, (S)-(4-(benzo[d]thiazol-2-yl)-1,4,6,7-tetrahydro-5H-imidazo[4,5-c]pyridin-5-yl)(2-(2-methoxyethyl)-4-methyloxazol-5-yl)methanone]
